Laboratory results as given in patent US8143259B2, “Cold menthol receptor antagonists” (Janssen Pharmaceutica, NV, priority 2008, dated 2012).
pIC50: −log10 of the molar value. Where “and” joins values, the source holds several entries; their conditions need not be identical. Identical values can stand only once.

Molecular target: T1, canine TRPM8 (Canis lupus familiaris, UniProt Q1A7N1)
T1 construct: expressed in transfected cells
Assay: In Vitro Canine TRPM8 Functional Assay (Ca2+ fluorescence, icilin activation)
Assay type: cell-based
Settings: for % Inh @ 0.2 μM: 0.2 μM compound; for % Inh @ 0.2 μM / inhibition at 0.2 µM: canine TRPM8 HEK293, icilin; for inhibition at 0.2 µM: HEK293, 0.2 μM compound; for pIC50: HEK293 cells stably expressing canine TRPM8, icilin activation, Ca2+ fluorescence
Method in brief: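 HEK293 cells stably expressing canine TRPM8, loaded with Calcium 3 dye; compounds added 5 min before icilin at a concentration giving ~80% maximal response. Peak icilin-evoked Ca2+ fluorescence, basal-subtracted and normalised to maximal response, fitted by sigmoidal nonlinear regression; quadruplicate wells.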

T1 sequence (Q1A7N1 1-1104): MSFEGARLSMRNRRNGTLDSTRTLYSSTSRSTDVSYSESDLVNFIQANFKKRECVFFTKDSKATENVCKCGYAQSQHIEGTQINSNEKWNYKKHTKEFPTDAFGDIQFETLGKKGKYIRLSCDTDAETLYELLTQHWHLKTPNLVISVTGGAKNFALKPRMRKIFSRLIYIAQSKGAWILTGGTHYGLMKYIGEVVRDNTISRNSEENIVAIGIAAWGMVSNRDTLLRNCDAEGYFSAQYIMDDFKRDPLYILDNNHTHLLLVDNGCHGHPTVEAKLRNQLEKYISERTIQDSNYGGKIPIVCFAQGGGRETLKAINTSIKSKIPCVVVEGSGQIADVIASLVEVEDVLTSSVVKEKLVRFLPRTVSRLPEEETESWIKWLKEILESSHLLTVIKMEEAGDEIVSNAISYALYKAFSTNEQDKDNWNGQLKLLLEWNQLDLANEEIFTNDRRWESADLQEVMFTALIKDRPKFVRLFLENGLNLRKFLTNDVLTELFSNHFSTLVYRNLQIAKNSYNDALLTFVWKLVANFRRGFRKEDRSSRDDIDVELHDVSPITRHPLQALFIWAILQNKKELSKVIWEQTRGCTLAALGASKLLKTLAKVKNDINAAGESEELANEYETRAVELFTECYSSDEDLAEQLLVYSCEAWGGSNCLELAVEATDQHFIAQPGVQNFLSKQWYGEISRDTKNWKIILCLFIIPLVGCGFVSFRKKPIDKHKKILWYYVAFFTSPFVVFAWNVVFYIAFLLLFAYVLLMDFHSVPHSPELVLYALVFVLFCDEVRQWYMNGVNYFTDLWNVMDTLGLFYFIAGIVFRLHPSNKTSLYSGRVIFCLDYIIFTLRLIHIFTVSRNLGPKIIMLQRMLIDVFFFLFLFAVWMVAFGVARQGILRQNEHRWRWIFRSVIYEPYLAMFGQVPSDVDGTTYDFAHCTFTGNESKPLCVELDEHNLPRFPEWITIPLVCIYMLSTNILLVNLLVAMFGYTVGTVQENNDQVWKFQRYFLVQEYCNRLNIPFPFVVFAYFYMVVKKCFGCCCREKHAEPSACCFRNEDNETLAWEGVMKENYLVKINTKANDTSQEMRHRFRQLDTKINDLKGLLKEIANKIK

Compound | % Inh @ 0.2 μM (0.2 µM) | inhibition at 0.2 µM | pIC50 | % Inh @ 0.2 μM
O=C(C(Nc1ccccc1)c1ccccn1)N1CCCC1c1ccccc1F (centres unmarked) [Cpd 217] | 26% | – | – | –
O=C(C(Nc1c(F)cccc1F)c1ccc(CO)cc1)N1CCC[C@H]1c1ccccc1F (stereo partly drawn) [Cpd 219, 2-(2,6-Difluoro-phenylamino)-1-[(2S)-2-(2-fluoro-phenyl)-pyrrolidin-1-yl]-2-(4-hydroxymethyl-phenyl)-ethanone] | – | 89% | 7.17 | –
COC(=O)c1ccc(C2CCCN2C(=O)C(Nc2ccccc2F)c2ccc(C(F)(F)F)cc2)cc1 (centres unmarked) [Cpd 220] | – | 96% | 7.32 | –
O=C(O)c1ccc(C2CCCN2C(=O)C(Nc2ccccc2F)c2ccc(C(F)(F)F)cc2)cc1 (centres unmarked) [Cpd 222] | – | 93% | 7.18 | –
O=C(C(Nc1ccccc1F)c1cc2ccccc2s1)N1CCCC1c1ccccc1F (centres unmarked) [Cpd 225, 2-Benzo[b]thiophen-2-yl-2-(2-fluoro-phenylamino)-1-[2-(2-fluoro-phenyl)-pyrrolidin-1-yl]-ethanone] | – | 98% | 8.15 | –
O=C(C(Nc1ccccc1)c1cnc2ccccc2c1)N1CCCC1c1ccccc1F (centres unmarked) [Cpd 226] | – | – | 7.37 | –
O=C(C(c1ccc(C(F)(F)F)cc1)N1CCc2ccccc21)N1CCCC1c1ccccc1 (centres unmarked) [Cpd 227] | – | – | 7.51 | –
O=C(C(c1ccc(C(F)(F)F)cc1)N1CCc2ccccc21)N1CCCC1c1ccccc1F (centres unmarked) [Cpd 228] | – | – | 7.60 | –
CN(c1ccccc1F)C(C(=O)N1Cc2ccccc2C1)c1ccc(C(F)(F)F)cc1 (centres unmarked) [Cpd 229] | – | – | 7.35 | –
O=C(C(c1ccc(C(F)(F)F)cc1)N1CCc2ccccc21)N1Cc2ccccc2C1 (centres unmarked) [Cpd 230] | – | – | 6.98 | –
CN(c1ccccc1F)C(C(=O)N1CCCC1c1ccccc1F)c1ccc(C(F)(F)F)cc1 (centres unmarked) [Cpd 233] | – | – | – | 10%
O=C(C(Cc1c(F)cccc1F)c1ccc(C(F)(F)F)cc1)N1CCCC1c1ccccc1F (centres unmarked) [Cpd 244, 3-(2,6-Difluoro-phenyl)-1-[2-(2-fluoro-phenyl)-pyrrolidin-1-yl]-2-(4-trifluoromethyl-phenyl)-propan-1-one] | – | 98% | 7.78 | –
O=C(C(Nc1ccccc1F)c1ccc2ncccc2c1)N1CCCC1c1ccccc1F (centres unmarked) [Cpd 248] | – | 94% | 7.91 | –
O=C(C(Cc1cccc(F)c1F)c1ccc(C(F)(F)F)cc1)N1CCCC1c1ccccc1F (centres unmarked) [Cpd 253] | – | 89% | 7.18 | –
O=C(C(Oc1ccccc1F)c1ccc(C(F)(F)F)cc1)N1CCCC1c1ccccc1F (centres unmarked) [Cpd 263, 2-(2-Fluoro-phenoxy)-1-[2-(2-fluoro-phenyl)-pyrrolidin-1-yl]-2-(4-trifluoromethyl-phenyl)-ethanone] | – | 84% | 6.96 | –
O=C(C(Nc1ccccc1)c1cnc2ccccc2c1)N1CCCC1c1ccccc1F (centres unmarked) [Cpd 264] | – | 93% | 7.37 | –
Nc1ccc(C2CCCN2C(=O)C(Nc2ccccc2F)c2ccc(C(F)(F)F)cc2)cc1 (centres unmarked) [Cpd 266] | – | 100% | 8.70 | –
O=C(C(Cc1c(F)cccc1F)c1ccc(C(F)(F)F)cc1)N1CCCC1c1ccccc1Cl (centres unmarked) [Cpd 267] | – | 98% | 7.52 | –
CN(C)c1ccc(C2CCCN2C(=O)C(Nc2ccccc2F)c2ccc(Br)cc2)cc1 (centres unmarked) [Cpd 271] | – | 90% | 7.05 | –
CN(C)c1ccc(C2CCCN2C(=O)C(Nc2ccccc2F)c2ccc(Cl)cc2)cc1 (centres unmarked) [Cpd 272] | – | 96% | 6.96 | –
CN(C)c1ccc(C2CCCN2C(=O)C(Nc2c(F)cccc2F)c2ccc(Cl)cc2)cc1 (centres unmarked) [Cpd 273] | – | 98% | 6.98 | –
O=C(C(Nc1ccccc1F)c1cnc2ccccc2c1)N1CCCC1c1ccccc1F (centres unmarked) [Cpd 281] | – | 89% | 7.03 | –
O=C(C(Nc1ccccc1F)c1ccc2cccnc2c1)N1CCCC1c1ccccc1F (centres unmarked) [Cpd 284] | 95% | 92% | 7.70 and 7.59 | –
O=C(C(Nc1ccccc1F)c1ccc(-c2cccnc2)cc1)N1CCCC1c1ccccc1F (centres unmarked) [Cpd 285, 2-(2-Fluoro-phenylamino)-1-[2-(2-fluoro-phenyl)-pyrrolidin-1-yl]-2-(4-pyridin-3-yl-phenyl)-ethanone] | 96% | 91% | 7.92 and 7.82 | –
CCOC(=O)c1ccc(C(Nc2ccccc2F)C(=O)N2CCCC2c2ccccc2F)cc1 (centres unmarked) [Cpd 287] | – | 92% | 7.57 | –
O=C(C(Nc1ccccc1F)c1ccc(-c2cncnc2)cc1)N1CCCC1c1ccccc1F (centres unmarked) [Cpd 288] | 95% | 91% | 8.05 and 8.00 | –

Compound | % Inh @ 0.2 μM (0.2 µM) | inhibition at 0.2 µM | pIC50 | % Inh @ 0.2 μM
Nc1ccc(C2CCCN2C(=O)C(Nc2ccccc2F)c2ccc(Cl)cc2)cc1 (centres unmarked) [Cpd 290] | – | 98% | 8.70 | –
O=C(C(c1ccc(C(F)(F)F)cc1)N1CCCc2ccccc21)N1CCCC1c1ccccc1 (centres unmarked) [Cpd 291] | – | 72% | 6.37 | –
O=C(C(Nc1ccccc1F)c1ccc(N2CCOCC2)cc1)N1CCCC1c1ccccc1F (centres unmarked) [Cpd 293] | – | 86% | 7.96 | –
O=C(C(Nc1ccccc1F)c1ccc(-c2ccncc2)cc1)N1CCCC1c1ccccc1F (centres unmarked) [Cpd 294] | 102% | 92% | 7.66 and 7.57 | –
O=C(O)c1ccc(-c2ccc(C(Nc3ccccc3F)C(=O)N3CCCC3c3ccccc3F)cc2)cc1 (centres unmarked) [Cpd 295, 4′-{1-(2-Fluoro-phenylamino)-2-[2-(2-fluoro-phenyl)-pyrrolidin-1-yl]-2-oxo-ethyl}-biphenyl-4-carboxylic acid] | – | 90% | 7.33 | –
CC(C)(C)OC(=O)N1CC=C(c2ccc(C(Nc3ccccc3F)C(=O)N3CCCC3c3ccccc3F)cc2)CC1 (centres unmarked) [Cpd 299, 4-(4-{1-(2-Fluoro-phenylamino)-2-[2-(2-fluoro-phenyl)-pyrrolidin-1-yl]-2-oxo-ethyl}-phenyl)-3,6-dihydro-2H-pyridine-1-carboxylic acid tert-butyl ester] | – | 99% | 7.19 | –
O=C(C(Nc1ccccc1F)c1ccc(-n2ccnc2)cc1)N1CCCC1c1ccccc1F (centres unmarked) [Cpd 301] | – | 99% | 7.46 | –
O=C(C(Nc1ccccc1F)c1ccc(C2=CCNCC2)cc1)N1CCCC1c1ccccc1F (centres unmarked) [Cpd 302, 2-(2-Fluoro-phenylamino)-1-[2-(2-fluoro-phenyl)-pyrrolidin-1-yl]-2-[4-(1,2,3,6-tetrahydro-pyridin-4-yl)-phenyl]-ethanone] | – | 57% | – | –
Nc1cccc(C2CCCN2C(=O)C(Nc2ccccc2F)c2ccc(C(F)(F)F)cc2)c1 (centres unmarked) [Cpd 305] | – | 101% | 8.70 | –
COC(=O)c1cccc(NC(C(=O)N2CCCC2c2ccccc2F)c2ccc3c(c2)CCO3)c1 (centres unmarked) [Cpd 311] | – | 99% | 7.29 | –
CC(=O)Nc1cccc(C2CCCN2C(=O)C(Nc2ccccc2F)c2ccc(C(F)(F)F)cc2)c1 (centres unmarked) [Cpd 316] | – | 102% | 7.59 | –
CC(=O)Nc1ccc(C2CCCN2C(=O)C(Nc2ccccc2F)c2ccc(C(F)(F)F)cc2)cc1 (centres unmarked) [Cpd 317] | – | 102% | 8.52 | –
CC(=O)N(c1ccccc1F)[C@H](C(=O)N1CCC[C@H]1c1ccccc1F)c1ccc(C(F)(F)F)cc1 [Cpd 318, N-(2-Fluoro-phenyl)-N-[2-[(2S)-2-(2-fluoro-phenyl)-pyrrolidin-1-yl]-2-oxo-(1S)-1-(4-trifluoromethyl-phenyl)-ethyl]-acetamide] | – | 47% | – | –
O=C(C(Nc1ccccc1F)c1cc2ccccc2s1)N1CCCC1c1cccnc1 (centres unmarked) [Cpd 319] | – | 94% | 7.60 | –
O=C(C(Nc1ccccc1F)c1cc2ccccc2s1)N1CCCC1c1ccccn1 (centres unmarked) [Cpd 321] | – | 94% | 8.10 | –
COC(=O)c1cccc(C2CCCN2C(=O)C(Nc2ccccc2F)c2cc3ccccc3s2)c1 (centres unmarked) [Cpd 324, 3-{1-[2-Benzo[b]thiophen-2-yl-2-(2-fluoro-phenylamino)-acetyl]-pyrrolidin-2-yl}-benzoic acid methyl ester] | – | 101% | 7.55 | –
COC(=O)c1ccc(C2CCCN2C(=O)C(Nc2ccccc2F)c2cc3ccccc3s2)cc1 (centres unmarked) [Cpd 325] | – | 101% | 7.21 | –
O=C(O)c1cccc(C2CCCN2C(=O)C(Nc2ccccc2F)c2cc3ccccc3s2)c1 (centres unmarked) [Cpd 326, 3-{1-[2-Benzo[b]thiophen-2-yl-2-(2-fluoro-phenylamino)-acetyl]-pyrrolidin-2-yl}-benzoic acid] | – | 97% | 7.11 | –
O=C(C(Nc1ccccc1F)c1cc2cccnc2s1)N1CCCC1c1ccccc1F (centres unmarked) [Cpd 328] | – | 101% | 8.10 | –
O=C(C(Nc1ccccc1F)c1ccc(-n2ccnc2)cc1)N1CCCC1c1ccccc1Cl (centres unmarked) [Cpd 342] | – | 100% | 7.55 | –
O=C(C(Nc1ccccc1F)c1ccc(-c2cccnc2)cc1)N1CCCC1c1ccccc1Cl (centres unmarked) [Cpd 343] | – | 101% | 7.77 | –
O=C(C(Nc1ccccc1F)c1ccc(C(F)(F)F)cc1)N1CCCC1c1cncc(Br)c1 (centres unmarked) [Cpd 344] | – | 98% | 7.36 | –
O=C(O)c1ccc(-c2ccc(C(Nc3ccccc3F)C(=O)N3CCCC3c3ccccc3Cl)cc2)cc1 (centres unmarked) [Cpd 350] | – | 99% | 7.38 | –
COC(=O)c1ccc(C2CCCN2C(=O)C(Nc2ccccc2F)c2ccc3c(c2)CCO3)cc1 (centres unmarked) [Cpd 351] | – | 83% | 7.04 | –
COC(=O)c1ccc(C2CCCN2C(=O)C(Nc2ccccc2F)c2ccc(-c3ccccn3)cc2)cc1 (centres unmarked) [Cpd 352] | – | 88% | 6.94 | –
O=C(C(Nc1ccccc1F)c1ccc(-c2ccc(-c3nnn[nH]3)cc2)cc1)N1CCC[C@H]1c1ccccc1F (stereo partly drawn) [Cpd 354, 2-(2-Fluoro-phenylamino)-1-[(2S)-2-(2-fluoro-phenyl)-pyrrolidin-1-yl]-2-[4′-(1H-tetrazol-5-yl)-biphenyl-4-yl]-ethanone] | – | 53% | – | –
